Values of other authors, collected in article PMC12332667, “Role of Structural Modifications in Peptidomimetic Compounds as Potential Antimicrobial Agents against Staphylococcus aureus and Streptococcus pyogenes: Balancing Bioavailability, Safety, and Antimicrobial Activity” (ACS Omega, 2025).
Read-outs that look alike come from different tables or passages of the source.

Conditions: cited from earlier work

SMILES | VD values (in vivo) [log L/kg] | VD values (reference number not given, probably ref 84, 85) [log L/kg]
CNC(C)C1CCC(N)C(OC2C(N)CC(N)C(OC3OCC(C)(O)C(NC)C3O)C2O)O1 (centres unmarked) [gentamicin] | −0.699 to −0.432 | 
CN[C@H](CC(C)C)C(=O)N[C@H]1C(=O)N[C@@H](CC(N)=O)C(=O)N[C@H]2C(=O)N[C@H]3C(=O)N[C@H](C(=O)N[C@H](C(=O)O)c4cc(O)cc(O)c4-c4cc3ccc4O)[C@H](O)c3ccc(c(Cl)c3)Oc3cc2cc(c3O[C@@H]2O[C@H](CO)[C@@H](O)[C@H](O)[C@H]2O[C@H]2C[C@](C)(N)[C@H](O)[C@H](C)O2)Oc2ccc(cc2Cl)[C@H]1O [vancomycin] |  | −0.398 to 0
